Measured values reported in US20230017532A1 (Hoffmann-La Roche Inc., priority 2018, published 2023).
Counter-ions that a name gives are not always drawn.

What follows are compounds tested on Acinetobacter baumannii ATCC17978 (assay: Antimicrobial susceptibility testing: 90% growth inhibitory concentration (IC90) determination, Iso-Sensitest broth, OD 600 nm). Conditions: 90% growth inhibitory concentration, Acinetobacter baumannii ATCC17978, Iso-Sensitest broth, OD 600 nm over 16 h; read-out: ATCC 17978 IC90.
Format: cell-based
Method: Antimicrobial Susceptibility Testing:
90% Growth Inhibitory Concentration (IC90) Determination
The in vitro antimicrobial activity of the compounds was determined according to the following procedure:
The assay used a 10-points Iso-Sensitest broth medium to measure quantitatively the in vitro activity of the compounds against Acinetobacter baumannii ATCC17978 and Acinetobacter baumannii ATCC17961.
Stock compounds in DMSO were serially twofold diluted (e.g. range from 50 to 0.097 μM final concentration) in 384 wells microtiter plates and inoculated with 49 μl the bacterial suspension in Iso-Sensitest medium to have a final cell concentration of ˜5×10^(5) CFU/ml in a final volume/well of 50 ul/well. Microtiter plates were incubated at 35±2° C.
Bacterial cell growth was determined with the measurement of optical density at λ=600 nm each 20 minutes over a time course of 16 h. Growth inhibition was calculated during the logarithmic growth of the bacterial cells with determination of the concentration inhibiting 50% (IC50) and 90% (IC90) of the growth.
Table 1 provides the 90% growth inhibitory concentrations (IC90) in micromoles per liter of the compounds of present invention obtained against the strain Acinetobacter baumannii ATCC17978 and Acinetobacter baumannii ATCC17961.

IC90 [nM]	SMILES
130	CCc1cc(Nc2nccn3c(-c4ccc(OCC#N)c(F)c4F)cnc23)ccc1C(=O)NCCOCCN [Example 53, N-(2-(2-aminoethoxy)ethyl)-4-((3-(4-(cyanomethoxy)-2,3-difluorophenyl)imidazo[1,2-a]pyrazin-8-yl)amino)-2-ethylbenzamide]

Same assay, conditions: Acinetobacter baumannii, ATCC17978, 16 h, 90% growth inhibitory concentration, Acinetobacter baumannii ATCC17978, Iso-Sensitest broth, OD 600 nm over 16 h; read-out: ATCC 17978 IC90

SMILES	IC90 [nM]
COc1ccc(-c2cnc3c(Nc4ccc(C(=O)NCCOCCN5CCNC(=O)C5)c(C)c4)nccn23)c(F)c1F [Example 3, 4-[[3-(2,3-difluoro-4-methoxy-phenyl)imidazo[1,2-a]pyrazin-8-yl]amino]-2-methyl-N-[2-[2-(3-oxopiperazin-1-yl)ethoxy]ethyl]benzamide;2,2,2-trifluoroacetic acid]	380
Cc1cc(Nc2nccn3c(-c4ccc(OC(F)F)cc4)cnc23)ccc1C(=O)NCCOCCN1CC[C@H]2COC[C@@H]2C1 [Example 82, N-[2-[2-[(3aS, 7aR)-3,3a,4,6,7,7a-hexahydro-1H-furo[3,4-c]pyridin-5-yl]ethoxy]ethyl]-4-[[3-[4-(difluoromethoxy)phenyl]imidazo [1,2-a]pyrazin-8-yl]amino]-2-methylbenzamide]	470
CCc1cc(Nc2nccn3c(-c4ccc(OC)c(F)c4F)cnc23)ccc1C(=O)NCCOCCN(C)CC(=O)O [Example 52, N-(2-(2-(4-((3-(2,3-difluoro-4-methoxyphenyl)imidazo[1,2-a]pyrazin-8-yl)amino)-2-ethylbenzamido)ethoxy)ethyl)-N-methylglycine hydrochloride]	320
COc1ccc(-c2cnc3c(Nc4ccc(C(=O)NCCOCCN)c(Br)c4)nccn23)c(F)c1F [Example 167, N-[2-(2-aminoethoxy)ethyl]-2-bromo-4-[[3-(2,3-difluoro-4-methoxyphenyl)imidazo[1,2-a]pyrazin-8-yl]amino] benzamide; formic acid]	52
C#CCOc1ccc(-c2cnc3c(Nc4ccc(C(=O)NCCNCCO)c(CC)c4)nccn23)c(F)c1F [Example 195, 4-[[3-(2,3-difluoro-4-prop-2-ynoxy-phenyl)imidazo[1,2-a]pyrazin-8-yl]amino]-2-ethyl-N-[2-(2-hydroxyethyl-amino)ethyl] benzamide]	490
C#CCOc1ccc(-c2cnc3c(Nc4ccc(C(=O)NCCCNCCO)c(CC)c4)nccn23)c(F)c1F [Example 73, 4-[[3-(2,3-difluoro-4-prop-2-ynoxy-phenyl)imidazo[1,2-a]pyrazin-8-yl]amino]-2-ethyl-N-[3-(2-hydroxyethylamino)propyl]benzamide]	170
Cc1cc(Nc2nccn3c(-c4ccc(OC(F)F)cc4)cnc23)ccc1C(=O)NCCOCCOCCOCCOCCO [Example 155, 4-[[3-[4-(difluoro-methoxy)phenyl]imidazo [1,2-a]pyrazin-8-yl]amino]-N-[2-[2-[2-[2-(2-hydroxyethoxy)ethoxy]ethoxy]ethoxy]ethyl]-2-methylbenzamide]	2300
C#CCOc1ccc(-c2cnc3c(Nc4ccc(C(=O)NCCOCCN)c(CC)c4)nccn23)c(F)c1F [Example 69, N-(2-(2-aminoethoxy)ethyl)-4-((3-(2,3-difluoro-4-(prop-2-yn-1-yloxy)phenyl)imidazo[1,2-a]pyrazin-8-yl)amino)-2-ethylbenzamide]	46
CCc1cc(Nc2nccn3c(-c4ccc(Cl)c(F)c4F)cnc23)ccc1C(=O)NCCOCCNCCO [Example 92, 4-[[3-(4-chloro-2,3-difluoro-phenyl)imidazo [1,2-a]pyrazin-8-yl]amino]-2-ethyl-N-[2-[2-(2-hydroxyethyl-amino)ethoxy]ethyl]benzamide]	260

Second part, the compound after the results:

IC90 [nM]	SMILES
590	Cc1cc(Nc2nccn3c(-c4ccc(Cl)cc4)cnc23)ccc1C(=O)NCCNCCN [Example 117, N-[2-(2-aminoethylamino)ethyl]-4-[[3-(4-chlorophenyl)imidazo[1,2-a]pyrazin-8-yl]amino]-2-methylbenzamide; hydrochloride]
970	Cc1cc(Nc2nccn3c(-c4ccc(OC(F)F)cc4)cnc23)ccc1C(=O)NCCOCCN1CCOC(CN)C1 (stereo not drawn) [Example 164, N-[2-[2-[2-(aminomethyl)morpholin-4-yl]ethoxy]ethyl]-4-[[3-[4-(difluoro-methoxy)phenyl]imidazo [1,2-a]pyrazin-8-yl]amino]-2-methylbenzamide; hydrochloride]
120	Cc1cc(Nc2nccn3c(-c4ccc(OCC#CCO)cc4)cnc23)ccc1C(=O)NCCOCCN [Example 29, N-[2-(2-aminoethoxy)ethyl]-4-[[3-[4-(4-hydroxybut-2-ynoxy)phenyl]imidazo[1,2-a]pyrazin-8-yl]amino]-2-methyl-benzamide formate]
1200	COc1ccc(-c2cnc3c(Nc4ccc(C(=O)NCCOCCN)c(F)c4)nccn23)cc1 [Example 145, N-[2-(2-aminoethoxy)ethyl]-2-fluoro-4-[[3-(4-methoxyphenyl)imidazo[1,2-a]pyrazin-8-yl]amino] benzamide; hydrochloride]
630	COc1ccc(-c2cnc3c(Nc4ccc(C(=O)NCCOCCCl)c(C)c4)nccn23)cc1 [Example 8, N-(2-(2-chloroethoxy)ethyl)-4-((3-(4-methoxyphenyl)imidazo[1,2-a]pyrazin-8-yl)amino)-2-methylbenzamide]
210	Cc1cc(Nc2nccn3c(-c4ccc(Cl)c(F)c4F)cnc23)ccc1C(=O)NCCOCCN [Example 88, N-[2-(2-aminoethoxy)ethyl]-4-[[3-(4-chloro-2,3-difluorophenyl)imidazo[1,2-a]pyrazin-8-yl]amino]-2-methylbenzamide; hydrochloride]
720	COc1ccc(-c2cnc3c(Nc4ccc(C(=O)NCCOCCN5CCOC5=O)c(C)c4)nccn23)cc1 [Example 76, 4-[[3-(4-methoxyphenyl)imidazo[1,2-a]pyrazin-8-yl]amino]-2-methyl-N-[2-[2-(2-oxo-1,3-oxazolidin-3-yl)ethoxy]ethyl] benzamide]
8900	Cc1cc(Nc2nccn3c(-c4ccc(OC(F)F)cc4)cnc23)ccc1C(=O)NCCOCC(=O)NCc1nnn[nH]1 [Example 158, 4-[[3-[4-(difluoro-methoxy)phenyl]imidazo [1,2-a]pyrazin-8-yl]amino]-2-methyl-N-[2-[2-oxo-2-(1H-tetrazol-5-ylmethylamino)ethoxy]ethyl] benzamide]
1300	Cc1cc(Nc2nccn3c(-c4ccc(OC(F)F)cc4)cnc23)ccc1C(=O)NCCOCCOCCO [Example 149, 4-[[3-[4-(difluoro-methoxy)phenyl]imidazo [1,2-a]pyrazin-8-yl]amino]-N-[2-[2-(2-hydroxyethoxy)ethoxy]ethyl]-2-methylbenzamide]
1300	COc1ccc(-c2cnc3c(Nc4ccc(C(=O)NCCOCCNC(=O)CO)c(C)c4)nccn23)cc1 [Example 148, N-[2-[2-[(2-hydroxyacetyl)amino]ethoxy]ethyl]-4-[[3-(4-methoxyphenyl)imidazo[1,2-a]pyrazin-8-yl]amino]-2-methylbenzamide]
280	COCC#CCOc1ccc(-c2cnc3c(Nc4ccc(C(=O)NCCOCCN)c(C)c4)nccn23)cc1 [Example 93, N-[2-(2-aminoethoxy)ethyl]-4-[[3-[4-(4-methoxy-but-2-ynoxy)phenyl]imidazo[1,2-a]pyrazin-8-yl]amino]-2-methylbenzamide; formic acid]
280	Cc1cc(Nc2nccn3c(-c4ccc(OC(F)F)cc4)cnc23)ccc1C(=O)NCCOCCN1CCCCC1 [Example 95, 4-[[3-[4-(difluoromethoxy)phenyl]imidazo [1,2-a]pyrazin-8-yl]amino]-2-methyl-N-[2-(2-piperidin-1-ylethoxy)ethyl] benzamide]
530	Cc1cc(Nc2nccn3c(-c4ccc(OC(F)F)cc4)cnc23)ccc1C(=O)NCCS(=O)(=O)CCN [Example 46, N-(2-((2-Aminoethyl)sulfonyl)ethyl)-4-((3-(4-(difluoromethoxy)phenyl)imidazo[1,2-a]pyrazin-8-yl)amino)-2-methylbenzamide]
480	COc1ccc(-c2cnc3c(Nc4ccc(C(=O)NCCNCCN)c(C)c4)nccn23)cc1 [Example 104, N-[2-(2-aminoethylamino)ethyl]-4-[[3-(4-methoxyphenyl)imidazo[1,2-a]pyrazin-8-yl]amino]-2-methylbenzamide; hydrochloride]
720	Cc1cc(Nc2nccn3c(-c4ccc(OC(F)F)cc4)cnc23)ccc1C(=O)NCCOCCO [Example 129, 4-[[3-[4-(difluoromethoxy)phenyl]imidazo [1,2-a]pyrazin-8-yl]amino]-N-[2-(2-hydroxyethoxy)ethyl]-2-methylbenzamide]
460	Cc1cc(Nc2nccn3c(-c4ccc(OC(F)F)cc4)cnc23)ccc1C(=O)NCCOCCNS(C)(=O)=O [Example 102, 4-[[3-[4-(difluoromethoxy)phenyl]imidazo [1,2-a]pyrazin-8-yl]amino]-N-[2-[2-(methane-sulfonamido)ethoxy]ethyl]-2-methylbenzamide]

Same assay, conditions: Acinetobacter baumannii, ATCC17978, 16 h, read-out: ATCC 17978 IC90

SMILES	IC90 [nM]
Cc1cc(Nc2nccn3c(-c4ccc(F)c(F)c4)cnc23)ccc1C(=O)NCCOCCN [Example 33, N-(2-(2-aminoethoxy)ethyl)-4-((3-(3,4-difluorophenyl)imidazo[1,2-a]pyrazin-8-yl)amino)-2-methylbenzamide hydrochloride]	520
